Measured values reported in paper PMC9145193 (Molecules, 2022).

Biological target: T1, AChE enzyme from electrophorus electricus (eeAChE) (Electrophorus electricus, UniProt O42275)
T1 construct: purchased Merck C3389
Assay: biochemical
Details: mean ± SEM from three independent experiments
Description: Donepezil was used as a positive control.
AChE activity was measured by the […] using AChE enzyme from electrophorus electricus (eeAChE) (C3389, Merck, Kenilworth, NJ, USA). AChE solution (2 U/mL) was prepared with 0.1 M phosphate buffer (pH 8.0) firstly. Varied concentrations of test compounds (20 μL), 1 mM 5′-dithiobis (2-nitrobenzoic acid) (DTNB) solution (100 μL), and AChE solution (40 μL) were added in order to each well of a 96-well plate. After incubation for 15 min at 37 °C, the reaction was initiated by adding 20 μL of acetylthiocholine iodide (1 mM) to the mixed solution. The absorbance of each plate was instantly measured at 405 nm using a microplate reader. The inhibition of each compound was estimated using the formula (1−Ai/Ac) × 100, where Ai and Ac represent the absorbance of AChE in the presence and absence of inhibitors, respectively. Each experiment was replicated three times. Plotting curves of log concentration via percentage of inhibition, the IC50 values of all tested compounds were graphically analyzed (Graph Pad Prism 8.0).

T1 sequence (O42275 24-633): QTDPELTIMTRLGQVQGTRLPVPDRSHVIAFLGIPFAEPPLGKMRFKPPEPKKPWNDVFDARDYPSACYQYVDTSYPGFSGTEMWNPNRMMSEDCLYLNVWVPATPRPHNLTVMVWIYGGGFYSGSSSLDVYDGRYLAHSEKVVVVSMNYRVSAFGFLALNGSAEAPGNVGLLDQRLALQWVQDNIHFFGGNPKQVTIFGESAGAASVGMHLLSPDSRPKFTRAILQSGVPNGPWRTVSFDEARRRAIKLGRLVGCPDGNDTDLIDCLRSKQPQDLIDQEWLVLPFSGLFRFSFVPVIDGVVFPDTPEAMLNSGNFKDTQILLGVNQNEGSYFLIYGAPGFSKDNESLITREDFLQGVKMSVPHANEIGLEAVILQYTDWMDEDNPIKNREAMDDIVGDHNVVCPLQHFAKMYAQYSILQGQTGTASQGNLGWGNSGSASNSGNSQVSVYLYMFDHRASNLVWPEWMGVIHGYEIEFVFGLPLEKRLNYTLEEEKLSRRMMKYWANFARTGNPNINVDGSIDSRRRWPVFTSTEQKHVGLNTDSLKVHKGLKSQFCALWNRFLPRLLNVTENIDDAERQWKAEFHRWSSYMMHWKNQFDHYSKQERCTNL

COc1cc2c(cc1OC)C(=O)/C(=C/c1cc[n+](Cc3ccc(Cl)cc3)cc1C(C)=O)OC2 [10g, (Z)-3-Acetyl-1-(4-chlorobenzyl)-4-((6,7-dimethoxy-4-oxoisochroman-3-ylidene)methyl)pyridin-1-ium Bromide]
IC50: 67.3 ± 2.68 nM

COc1cc2c(cc1OC)C(=O)/C(=C/c1cc[n+](Cc3cccc(Br)c3)cc1C(N)=O)OC2 [13i, (Z)-1-(3-Bromobenzyl)-3-carbamoyl-4-((6,7-dimethoxy-4-oxoisochroman-3-ylidene)methyl)pyridin-1-ium Bromide]
IC50: 38.1 ± 0.92 nM

COc1cc2c(cc1OC)C(=O)/C(=C/c1cc[n+](Cc3ccc(C)cc3)cc1C(N)=O)OC2 [13m, (Z)-3-Carbamoyl-4-((6,7-dimethoxy-4-oxoisochroman-3-ylidene)methyl)-1-(4-methylbenzyl)pyridin-1-ium Bromide]
IC50: 42.47 ± 0.25 nM

COc1cc2c(cc1OC)C(=O)/C(=C/c1cc[n+](Cc3ccccc3Br)cc1C(C)=O)OC2 [10h, (Z)-3-Acetyl-1-(2-bromobenzyl)-4-((6,7-dimethoxy-4-oxoisochroman-3-ylidene)methyl)pyridin-1-ium Bromide]
IC50: 6.22 ± 0.05 nM

COc1cc2c(cc1OC)C(=O)/C(=C/c1cc[n+](Cc3cccc(C(F)(F)F)c3)cc1C(C)=O)OC2 [10r, (Z)-3-Acetyl-4-((6,7-dimethoxy-4-oxoisochroman-3-ylidene)methyl)-1-(3-(trifluoromethyl)benzyl)pyridin-1-ium Bromide]
IC50: 25.3 ± 2.2 nM

COc1cc2c(cc1OC)C(=O)/C(=C/c1cc[n+](Cc3cccc(F)c3)cc1C(C)=O)OC2 [10c, (Z)-3-Acetyl-4-((6,7-dimethoxy-4-oxoisochroman-3-ylidene)methyl)-1-(3-fluorobenzyl)pyridin-1-ium Bromide]
IC50: 4.03 ± 0.23 nM

COc1cc2c(cc1OC)C(=O)/C(=C/c1cc[n+](Cc3ccc(Br)cc3)cc1C(C)=O)OC2 [10j, (Z)-3-Acetyl-1-(4-bromobenzyl)-4-((6,7-dimethoxy-4-oxoisochroman-3-ylidene)methyl)pyridin-1-ium Bromide]
IC50: 75.7 ± 3.18 nM

COc1cc2c(cc1OC)C(=O)/C(=C/c1cc[n+](Cc3cccc(C)c3)cc1C(C)=O)OC2 [10l, (Z)-3-Acetyl-4-((6,7-dimethoxy-4-oxoisochroman-3-ylidene)methyl)-1-(3-methylbenzyl)pyridin-1-ium Bromide]
IC50: 6.61 ± 0.81 nM

COc1cc2c(cc1OC)C(=O)/C(=C/c1cc[n+](Cc3cccc(Br)c3)cc1C(C)=O)OC2 [10i, (Z)-3-Acetyl-1-(3-bromobenzyl)-4-((6,7-dimethoxy-4-oxoisochroman-3-ylidene)methyl)pyridin-1-ium Bromide]
IC50: 11 ± 0.82 nM

COc1cc2c(cc1OC)C(=O)/C(=C/c1cc[n+](Cc3ccccc3C(F)(F)F)cc1C(N)=O)OC2 [13n, (Z)-3-Carbamoyl-4-((6,7-dimethoxy-4-oxoisochroman-3-ylidene)methyl)-1-(2-(trifluoromethyl)benzyl)pyridin-1-ium Bromide]
IC50: 30.7 ± 0.71 nM

COc1cc2c(cc1OC)C(=O)/C(=C/c1cc[n+](Cc3ccccc3[N+](=O)[O-])cc1C(C)=O)OC2 [10n, (Z)-3-Acetyl-4-((6,7-dimethoxy-4-oxoisochroman-3-ylidene)methyl)-1-(2-nitrobenzyl)pyridin-1-ium Bromide]
IC50: 13.6 ± 0.72 nM

COc1cc2c(cc1OC)C(=O)/C(=C/c1cc[n+](Cc3cccc(C(F)(F)F)c3)cc1C(N)=O)OC2 [13o, (Z)-3-Carbamoyl-4-((6,7-dimethoxy-4-oxoisochroman-3-ylidene)methyl)-1-(3-(trifluoromethyl)benzyl)pyridin-1-ium Bromide]
IC50: 43 ± 0.44 nM

COc1cc2c(cc1OC)C(=O)/C(=C/c1cc[n+](Cc3ccc([N+](=O)[O-])cc3)cc1C(C)=O)OC2 [10p, (Z)-3-Acetyl-4-((6,7-dimethoxy-4-oxoisochroman-3-ylidene)methyl)-1-(4-nitrobenzyl)pyridin-1-ium Bromide]
IC50: 129 ± 2.68 nM

COc1cc2c(cc1OC)C(=O)/C(=C/c1cc[n+](Cc3ccc(Cl)cc3)cc1C(N)=O)OC2 [13g, (Z)-3-Carbamoyl-1-(4-chlorobenzyl)-4-((6,7-dimethoxy-4-oxoisochroman-3-ylidene)methyl)pyridin-1-ium Bromide]
IC50: 188 ± 4.78 nM
